Assay results: publication PMC6631119, “Nasal Administration and Plasma Pharmacokinetics of Parathyroid Hormone Peptide PTH 1-34 for the Treatment of Osteoporosis” (Pharmaceutics, 2019)
Where two headings read alike, the source gives them in different places.

Legend:
[1] = Healthy human volunteer plasma pharmacokinetics of PTH 1-34 (open cross-over, ELISA); format: in vivo; settings: human
Procedure: An open cross-over clinical IMP (investigative medicinal product) study was conducted in seven healthy female subjects aged over 55 years (mean age 67.7, range 58 to 81 years). Each participant provided informed consent in accordance with ethical committee requirements and good clinical practice. Pre-study screening assessments were carried out within 21 days of the participants receiving their first dose (Supplementary Materials: Section S1). Inclusion and exclusion criteria were applied (Supplementary Materials: Section S2). Participants were admitted to the study centre on the morning of dosing, having abstained from alcohol and smoking for at least 24 h previously and fasted from midnight. Participants were given a light meal on arrival. A cannula was then positioned in the participant’s arm or hand to facilitate the collection of blood samples. The pre-dose sample was taken. Participants received a single subcutaneous injection of 20 μg teriparatide into the abdomen at their first trial visit. Following a seven day wash out period, each participant self-administered 90 μg PTH 1-34 from the nasal spray formulation using the Rexam SP270 nasal spray device; the patients had previously been trained in operation of the Rexam device. Any episodes of sneezing after administration of the nasal formulation were recorded. The nasal spray formulation contained Tc-99m-DTPA, 3–5 MBq per Rexam SP270 nasal spray dose, resulting in an effective radiation dose of less than 0.14 mSv to each participant.
Following either subcutaneous or intranasal dosing, 10 mL blood samples (Becton Dickinson sodium heparin) were taken at 5, 15, 30, 60 120, 180, 240, 300 and 360 min. After each sample was taken, the cannula was flushed with 10 mL 0.9% saline. Blood was stored on ice and centrifuged within 30 min to prepare plasma (4 °C, 1100–1300 g, 10 min). These samples were stored at −20 °C before dispatching to Simbec Research Ltd. (Merthyr Tydfil, UK) for quantification by validated ELISA, in compliance with The UK Good Laboratory Practice Regulations 1999 (Statutory Instrument No. 310 6) and subsequent amendment, OECD Principles of Good Laboratory Practice (Paris 1998) and EC Commission Directive 2004/10/EC of February 2004.
Pharmacokinetic data were analysed using Phoenix® WinNonlin® 5.1 (Certara USA, Inc., Princeton, NJ, USA) from quantified PTH 1-34 in the plasma, using recorded sampling times. Summary statistics (mean, median, SD, coefficient of variation [CV%], minimum, maximum, n) and the following plasma pharmacokinetic parameters were calculated: • Cmax • Tmax • Terminal half-life (t1/2) • AUC to 2 h (AUC0–2h) • AUC to last measured time point (AUClast) and corresponding Frel for nasal formulation

[2] = cited from earlier work
[3] = conscious rats, nasal liquid formulation with Solutol HS15 (10%), first 2 h after administration; cited from earlier work
[4] = human volunteers, nasal powder formulations with Solutol HS15 compared to subcutaneous injection of hGH; cited from earlier work
Source text: With the aim of improving upon the pharmacokinetics of the liquid nasal spray in humans, our continued research evaluated a bioadhesive powder formulation within a large animal (ovine) model. This is a model known to be highly representative of intranasal drug delivery that closely replicates the clinical findings. […] Likewise, we have published o ...

[5] = human, subcutaneous injection, estimated

## CC[C@H](C)[C@H](NC(=O)[C@H](CCC(=O)O)NC(=O)[C@H](CO)NC(=O)[C@@H](NC(=O)[C@@H](N)CO)C(C)C)C(=O)N[C@@H](CCC(N)=O)C(=O)N[C@@H](CC(C)C)C(=O)N[C@@H](CCSC)C(=O)N[C@@H](Cc1cnc[nH]1)C(=O)N[C@@H](CC(N)=O)C(=O)N[C@@H](CC(C)C)C(=O)NCC(=O)N[C@@H](CCCCN)C(=O)N[C@@H](Cc1cnc[nH]1)C(=O)N[C@@H](CC(C)C)C(=O)N[C@@H](CC(N)=O)C(=O)N[C@@H](CO)C(=O)N[C@@H](CCSC)C(=O)N[C@@H](CCC(=O)O)C(=O)N[C@@H](CCCN=C(N)N)C(=O)N[C@H](C(=O)N[C@@H](CCC(=O)O)C(=O)N[C@@H](Cc1c[nH]c2ccccc12)C(=O)N[C@@H](CC(C)C)C(=O)N[C@@H](CCCN=C(N)N)C(=O)N[C@@H](CCCCN)C(=O)N[C@@H](CCCCN)C(=O)N[C@@H](CC(C)C)C(=O)N[C@@H](CCC(N)=O)C(=O)N[C@@H](CC(=O)O)C(=O)N[C@H](C(=O)N[C@@H](Cc1cnc[nH]1)C(=O)N[C@@H](CC(N)=O)C(=O)N[C@@H](Cc1ccccc1)C(=O)O)C(C)C)C(C)C [teriparatide]
[1]; female, plasma, sc, 20 ug, healthy female volunteers aged over 55 y, single 20 μg teriparatide subcutaneous injection into abdomen (Forsteo pen), plasma ELISA, mean of n = 7
  Tmax: 21.4 min
[1]; female, plasma, sc, 20 ug, healthy female volunteers aged over 55 y, single 20 μg teriparatide subcutaneous injection into abdomen (Forsteo pen), plasma ELISA, mean of n = 7, read-out: AUC0–2h (converted)
  AUC(0-t): 0.29 ng·h/mL
[1]; female, plasma, sc, 20 ug, healthy female volunteers aged over 55 y, single 20 μg teriparatide subcutaneous injection into abdomen (Forsteo pen), plasma ELISA, mean of n = 7, read-out: AUC0–last (converted)
  AUC(0-t): 0.345 ng·h/mL
[1]; female, plasma, sc, 20 ug, healthy female volunteers aged over 55 y, single 20 μg teriparatide subcutaneous injection into abdomen (Forsteo pen), plasma ELISA, mean of n = 7, read-out: Cmax
  Cmax: 0.253 ng/mL
[1]; 20 μg teriparatide subcutaneous injection
  time by which teriparatide concentrations returned to zero: ≤ 6 h
[1]; 20 μg teriparatide subcutaneous injection, mean
  elimination t1/2: approximately 1 h
[1]; sc, 20 ug, healthy female volunteers aged over 55 y, single 20 μg teriparatide subcutaneous injection into abdomen (Forsteo pen), plasma ELISA, mean of n = 7, read-out: t½
  half-life: 64.8 min
[2]; human subjects, subcutaneous injection into the abdominal wall, intravenous injection 100%
  absolute bioavailability of subcutaneous injection: up to 95%
[2]; [5]
  prolongation in the time to reach peak concentration (Tmax), thigh as opposed to abdomen: 1.5 min
  reduction in maximum plasma teriparatide concentrations (Cmax), thigh as opposed to abdomen: 18%
  slower rate of absorption, injection into the thigh as opposed to the abdomen: 21%

## hGH: human growth hormone (MW 22kDa), given nasally with Solutol HS15 in earlier studies
[3]
  relative bioavailability: 49%
[4]
  relative bioavailability: about 3%
